# Tests used:
# AHAS = AHAS enzyme assay: AHAS activity remaining in the presence of herbicides or amino acids; format: biochemical, Nicotiana tabacum; conditions: for % AHAS activity remaining with Ile / % AHAS activity remaining with Leu / % AHAS activity remaining with Val: 10mM
# Experimental: The weight of the material to be assayed is determined either by weighing the pellet obtained by refrigerated centrifugation of a cell suspension or by weighing callus, leaf or root tissue placed into liquid nitrogen and macerated to a fine powder. One volume (in ml) of cold homogenization buffer equal to the weight (in g) of the cell suspension pellet or equal to two times the weight (in g) of tissue is added and the mixture is passed through a French pressure cell at 15,000 psi or is ground with sand in a mortar and pestle. All subsequent steps are carried out keeping the material cold (about 4°C). The cells are disrupted at 16,000 psi, collecting the cell exudate into a container on ice. The exudate is centrifuged 5 min at 10,000 rpm to clear the cell debris. The volume of the supernate is measured and enzyme grade ammonium sulfate added to 25 % saturation (144 mg (NH₄)₂SO₄ per ml supernate). The mixture is stirred on ice for 15 min, then centrifuged for 5 min at 10,000 rpm. The pellet is discarded and the supernate adjusted to 50 % saturation with ammonium sulfate (158 mg (NH₄)₂SO₄ per ml supernate). After stirring on ice for 15 min, the pellet is collected by centrifugation at 10,000 rpm for 5 min. The obtained pellet is dissolved in 1-2 ml of column buffer. The extract is desalted by application to a Sephadex G50 column equilibrated with column buffer. The sample is eluted with column buffer, collecting approximately 2 ml of sample for each ml of sample applied to the column.
# Homogenization buffer and column buffer are chosen depending on the source of the AHAS to be assayed: Tobacco homogenization buffer consists of: 50 mM NaH₂PO₄ buffer pH 7.0, 0.5 mM EDTA pH 7.0, 0.5 mM MgCl₂, 1 mM sodium pyruvate pH 7.0, 10 µM FAD, 1 mM PMSF, 10 % glycerol. Maize homogenization buffer consists of: 50 mM Tris pH 7.5, 1 mM EDTA pH 7.5, 5 mM MgCl₂, 20 mM sodium pyruvate pH 7.0, 10 µM FAD, 1 mM PMSF, 1 mM DTT, 1 mM TPP, 10 % glycerol. Tobacco column buffer consists of: 50 mM NaH₂PO₄ buffer pH 7.0, 0.1 mM EDTA, 0.5 mM MgCl₂, 10 µM FAD, 1 mM PMSF, 10 % glycerol. Maize column buffer consists of: 50 mM Tris pH 7.5, 5 mM MgCl₂, 10 µM FAD, 0.1 mM EDTA, 1 mM PMSF, 1 mM DTT, 10 % glycerol.
# 5-50 µl of an extract prepared according to EXAMPLE 30 are dissolved in a total volume of 0.5 ml of reaction mixture (see below). The mixture is incubated for 30 min at 37°C. The reaction is stopped by the addition of 50 µl of 6 N H₂SO₄. The mixture is incubated for 15 min at 60°C, then treated with 625 µl of a-naphthol reagent (500 µl 5 % a-naphthol in 2.5 M NaOH and 125 µl 25 mg/ml creatine) and incubated another 15 min at 60°C. If a precipitate has formed, this is spun out, and the absorbance measured at 520 nm. The amount of acetoin formed is calculated from a standard curve developed using 0.4 µg to 10 µg acetoin. The specific activity is expressed as pKat acetoin per mg protein.
# 1-20 µl of a sample are placed in a ELISA plate well with a total volume of 0.15 ml of reaction mixture. The mixture is reacted for 30 min at 37°C. The reaction is stopped by the addition of 50 µl of 2.4 M H₂SO₄ containing 1 % creatine. The mixture is incubated for 30 min at 60°C. Any precipitate present is separated by centri fugation. 150 µl of the assay mixture are transferred to a new ELISA plate, treated with 100 µl 10 % a-naphthol in 5M NaOH and incubated another 20 min at 60°C. The absorbance is measured at 520 nm, and the specific activity expressed as under a).
# Ten point inhibition curves are generated by determining AHAS activity in the presence of sulfonylurea, imidazolinone and triazolopyrimidine herbicides. The sulfonylurea and triazolopyrimidine herbicides are included in the reaction mixture to give a range of final concentrations of the inhibitors between 1 nM and 10,000 nM. The imidazolinone herbicides are included in the concentration ranges of 10 nM to 100,000 nM. […]
# [1] = system: transgenic tobacco plants; assay: Leaf disc herbicide tolerance test of transgenic tobacco plants; format: cell-based, cv. Havana 38; conditions: after 40 days
# Experimental: After 3-6 weeks of growth in light, the cultured tissue pieces are evaluated for their ability to form green shoots in the presence of the inhibitor. In analogy, sections from stems, petioles, roots, cotyledons, and hypocotyls are used. The herbicide tolerance of the transgenic plants obtained according to EXAMPLE 23 and 24 using CGA1402 are essentially determined as described in EXAMPLE 11a. Leaf discs are cut from different transgenic plants, weighed and then placed, lower side up, onto solidified MSBN medium containing 0, 10, 30, 100 and 300 ppb of SU872. The culture plates are incubated in the light at 25-28°C. […] Discs are inspected visually and evaluated for shoot and/or callus formation.
smiles,measurement,setting,value
"CC[C@H](C)[C@H](N)C(=O)O [Ile, isoleucine]",% AHAS activity remaining with Ile,AHAS; strain S3 (Table 2),80%
same,% AHAS activity remaining with Ile,AHAS; strain Su 6 (Table 2),66%
same,% AHAS activity remaining with Ile,AHAS; strain Su 8 (Table 2),95%
same,% AHAS activity remaining with Ile,AHAS; strain Su 10 (Table 2),102%
same,% AHAS activity remaining with Ile,AHAS; strain Su 20 (Table 2),58%
same,% AHAS activity remaining with Ile,AHAS; strain Su 25 (Table 2),100%
same,% AHAS activity remaining with Ile,AHAS; strain Su 27 (Table 2),92%
same,% AHAS activity remaining with Ile,AHAS; strain Su 41 (Table 2),97%
"CC(C)C[C@H](N)C(=O)O [Leu, leucine]",% AHAS activity remaining with Leu,AHAS; strain S3 (Table 2),38%
same,% AHAS activity remaining with Leu,AHAS; strain Su 6 (Table 2),58%
same,% AHAS activity remaining with Leu,AHAS; strain Su 8 (Table 2),61%
same,% AHAS activity remaining with Leu,AHAS; strain Su 10 (Table 2),62%
same,% AHAS activity remaining with Leu,AHAS; strain Su 20 (Table 2),53%
same,% AHAS activity remaining with Leu,AHAS; strain Su 25 (Table 2),84%
same,% AHAS activity remaining with Leu,AHAS; strain Su 27 (Table 2),81%
same,% AHAS activity remaining with Leu,AHAS; strain Su 41 (Table 2),71%
"COCCOc1ccccc1S(=O)(=O)NC(=O)Nc1nc(OC)nc(OC)n1 [SU464, 2-(2-methoxyethoxy)-N-[(4,6-dimethoxy-1,3,5-triazin-2-yl)-aminocarbonyl]benzenesulfonamide]",% AHAS activity remaining with SU464,"AHAS; 0.21µM, strain S3 (Table 2)",44%
same,% AHAS activity remaining with SU464,"AHAS; 0.21µM, strain Su 6 (Table 2)",36%
same,% AHAS activity remaining with SU464,"AHAS; 0.21µM, strain Su 8 (Table 2)",38%
same,% AHAS activity remaining with SU464,"AHAS; 0.21µM, strain Su 10 (Table 2)",37%
same,% AHAS activity remaining with SU464,"AHAS; 0.21µM, strain Su 20 (Table 2)",32%
same,% AHAS activity remaining with SU464,"AHAS; 0.21µM, strain Su 25 (Table 2)",32%
same,% AHAS activity remaining with SU464,"AHAS; 0.21µM, strain Su 27 (Table 2)",39%
same,% AHAS activity remaining with SU464,"AHAS; 0.21µM, strain Su 41 (Table 2)",32%
same,% AHAS activity remaining with SU464,"AHAS; 10.6µM, strain S3 (Table 2)",24%
same,% AHAS activity remaining with SU464,"AHAS; 10.6µM, strain Su 6 (Table 2)",15%
same,% AHAS activity remaining with SU464,"AHAS; 10.6µM, strain Su 8 (Table 2)",16%
same,% AHAS activity remaining with SU464,"AHAS; 10.6µM, strain Su 10 (Table 2)",20%
same,% AHAS activity remaining with SU464,"AHAS; 10.6µM, strain Su 20 (Table 2)",21%
same,% AHAS activity remaining with SU464,"AHAS; 10.6µM, strain Su 25 (Table 2)",18%
same,% AHAS activity remaining with SU464,"AHAS; 10.6µM, strain Su 27 (Table 2)",19%
same,% AHAS activity remaining with SU464,"AHAS; 10.6µM, strain Su 41 (Table 2)",21%
"COC(=O)c1ccccc1S(=O)(=O)NC(=O)Nc1nc(OC(F)F)cc(OC(F)F)n1 [SU872, 2-methoxycarbonyl-N-[(4,6-bis{difluoromethoxy}-pyrimidin-2-yl)-aminocarbonyl]benzenesulfonamide]",% AHAS activity remaining with SU872,"AHAS; 0.21µM, strain S3 (Table 2)",17%
same,% AHAS activity remaining with SU872,"AHAS; 0.21µM, strain Su 6 (Table 2)",27%
same,% AHAS activity remaining with SU872,"AHAS; 0.21µM, strain Su 8 (Table 2)",32%
same,% AHAS activity remaining with SU872,"AHAS; 0.21µM, strain Su 10 (Table 2)",39%
same,% AHAS activity remaining with SU872,"AHAS; 0.21µM, strain Su 20 (Table 2)",18%
same,% AHAS activity remaining with SU872,"AHAS; 0.21µM, strain Su 25 (Table 2)",20%
same,% AHAS activity remaining with SU872,"AHAS; 0.21µM, strain Su 27 (Table 2)",36%
same,% AHAS activity remaining with SU872,"AHAS; 0.21µM, strain Su 41 (Table 2)",15%
same,% AHAS activity remaining with SU872,"AHAS; 10.6µM, strain S3 (Table 2)",14%
same,% AHAS activity remaining with SU872,"AHAS; 10.6µM, strain Su 6 (Table 2)",12%
same,% AHAS activity remaining with SU872,"AHAS; 10.6µM, strain Su 8 (Table 2)",12%
same,% AHAS activity remaining with SU872,"AHAS; 10.6µM, strain Su 10 (Table 2)",15%
same,% AHAS activity remaining with SU872,"AHAS; 10.6µM, strain Su 20 (Table 2)",17%
same,% AHAS activity remaining with SU872,"AHAS; 10.6µM, strain Su 25 (Table 2)",18%
same,% AHAS activity remaining with SU872,"AHAS; 10.6µM, strain Su 27 (Table 2)",20%
same,% AHAS activity remaining with SU872,"AHAS; 10.6µM, strain Su 41 (Table 2)",12%
same,Mean mg fresh weight per disc ± standard deviation (n=7),"[1]; 10 ppb SU872, plant A3 (transformed with CGA1402, 35S/wild-type Arabidopsis AHAS)",2151 ± 995 mg
same,Mean mg fresh weight per disc ± standard deviation (n=7),"[1]; 10 ppb SU872, plant A4 (transformed with CGA1402, 35S/wild-type Arabidopsis AHAS)",2847 ± 548 mg
same,Mean mg fresh weight per disc ± standard deviation (n=7),"[1]; 10 ppb SU872, plant D2 (genomic clone of AHAS from chlorsulfuron tolerant mutant GH-50), discs bleached, not enlarged, no callus",70 ± 14 mg
same,Mean mg fresh weight per disc ± standard deviation (n=7),"[1]; 10 ppb SU872, plant type E (wild-type tobacco, cv. Havana 38), discs bleached, not enlarged, no callus",87 ± 19 mg
same,Mean mg fresh weight per disc ± standard deviation (n=7),"[1]; 30 ppb SU872, plant A3",180 ± 98 mg
same,Mean mg fresh weight per disc ± standard deviation (n=7),"[1]; 30 ppb SU872, plant A4",333 ± 174 mg
same,Mean mg fresh weight per disc ± standard deviation (n=7),"[1]; 100 ppb SU872, plant A3",33 ± 29 mg
same,Mean mg fresh weight per disc ± standard deviation (n=7),"[1]; 100 ppb SU872, plant A4",19 ± 15 mg
"CC(C)[C@H](N)C(=O)O [Val, valine]",% AHAS activity remaining with Val,AHAS; strain S3 (Table 2),69%
same,% AHAS activity remaining with Val,AHAS; strain Su 6 (Table 2),82%
same,% AHAS activity remaining with Val,AHAS; strain Su 8 (Table 2),81%
same,% AHAS activity remaining with Val,AHAS; strain Su 10 (Table 2),48%
same,% AHAS activity remaining with Val,AHAS; strain Su 20 (Table 2),75%
same,% AHAS activity remaining with Val,AHAS; strain Su 25 (Table 2),86%
same,% AHAS activity remaining with Val,AHAS; strain Su 27 (Table 2),91%
same,% AHAS activity remaining with Val,AHAS; strain Su 41 (Table 2),83%

# From patent EP0360750A2, “Novel herbicide tolerant plants” (CIBA-GEIGY AG, priority 1988, dated 1990)
